Columns and labels:
[1] = Encapsulation efficiency of small molecule pharmaceutical agents using excipient formulations; type: physicochemical; details: PEG-PPS system
Experimental: Samples used in Table 2 were prepared as follows. 10 mg of PEG-PPS was added to a 1.5 mL centrifuge tube with either 90 mg of PEG600 or DBU-HCl, and 2 mg of either paclitaxel or dexamethasone. This was heated at 95° C. for 15 min and mixed thoroughly. After cooling to RT, the blend was slowly diluted to 1 mL with distilled water. The free pharmaceutical agent was pelleted via centrifugation for 10 minutes at 10,000 g, and the pellet and supernatant were separately freeze dried, and analyzed in THF via gel permeation chromatography. Dexamethasone and paclitaxel results were quantified using a standard curve.

[2] = test system: caco-2 cells (enterocytes) and lymphatic endothelial cells (LECs); assay: Transport in coculture model of gut lymphatic uptake; type: in vitro ADME; details: caco-2/LEC coculture
Experimental: Given that PEG-PPS nanoparticles can survive harsh conditions such as gastric pH, we contemplated their transport in the gut lymphatics, determining their potential to be processed by mechanisms related to fat uptake in the gut. This was measured using a coculture model of caco-2 cells (enterocytes) and lymphatic endothelial cells (LECs), allowing full characterization of uptake, packaging, and transit (collectively referred to as transport). It was determined that the surface characteristics of PPS-based nanoparticles can be engineered to provide for effective transport: for example, particles on which about 10% of the terminal chain groups were substituted with a carboxyl functionality were transported at a level 5-fold higher than that of equivalent particles lacking a surface charge. Other surface charging moieties, such as sulfates and sulfones, are similarly effective after optimization.

Compound | Encapsulation, method of the invention versus solvent dispersion [1] | Uptake / transport [2]
C[C@@H]1[C@H](O)[C@@H](C)/C=C/C=C/C=C/C=C/C=C/C=C/C=C/[C@H](O[C@@H]2O[C@H](C)[C@@H](O)[C@H](N)[C@@H]2O)C[C@@H]2O[C@](O)(C[C@@H](O)C[C@@H](O)[C@H](O)CC[C@@H](O)C[C@@H](O)CC(=O)O[C@H]1C)C[C@H](O)[C@H]2C(=O)O [amphotericin B] | more efficiently encapsulated via solvent dispersion | 
CO[C@H]1C[C@@H]2CC[C@@H](C)[C@@](O)(O2)C(=O)C(=O)N2CCCC[C@H]2C(=O)O[C@H]([C@H](C)C[C@@H]2CC[C@@H](OCCO)[C@H](OC)C2)CC(=O)[C@H](C)/C=C(\C)[C@@H](O)[C@@H](OC)C(=O)[C@H](C)C[C@H](C)/C=C/C=C/C=C/1C [everolimus] | efficiently encapsulated | 
CC(=O)O[C@H]1C(=O)[C@@]2(C)[C@H]([C@H](OC(=O)c3ccccc3)[C@]3(O)C[C@H](OC(=O)[C@H](O)[C@@H](NC(=O)c4ccccc4)c4ccccc4)C(C)=C1C3(C)C)[C@]1(OC(C)=O)CO[C@@H]1C[C@@H]2O [paclitaxel] | more efficiently encapsulated via the method of the invention | 
dextran |  | not well transported
